Like-named read-outs stand apart in the source and are kept apart here.

Here are results for 30 compounds from patent US11046700B2, “Substituted imidazo[1,2-a]pyrazines, pyrazolo[1,5-c]pyrimidines, pyrazolo[1,5-a]pyridines, and purines for the treatment of schistosomiasis” (Merck Patent GmbH, priority 2017, dated 2021).

Common to all, as to assay type: cell-based
One data set deals with S. mansoni adult worms. Nature of the data set: In vitro assay, S. mansoni adult worms. The settings on record: Schistosoma mansoni; S. mansoni adult worms, in vitro; read-out: (a) Adult. As for the experimental part: (§1) The routine biological assays using adult or juvenile worms and cytotoxicity assays using MRC-5 cells have been disclosed previously in Mansour, N. R., et al. (2016). “High Throughput Screening Identifies Novel Lead Compounds with Activity against Larval, Juvenile and Schistosoma mansoni PLoS Negl Trap Dis 10(4): e0004659. Cytotoxicity assays using the HepG2 cell line were carried out as described in Molecular Diversity (2015) 19, 251-261.
(a) S. mansoni adult worms

Data set [1] has as its system S. mansoni juvenile worms. Nature of the data set: In vitro assay, S. mansoni juvenile worms. The settings on record: Schistosoma mansoni, read-out: (b) Juvenile. The protocol:
as §1
(b) S. mansoni juvenile worms

The subject of the next data set is HepG2 cell line. Nature of the data set: Cytotoxicity against human HepG2 cell lines.
Where [2] appears, read: S. mansoni juvenile worms, in vitro.

As for `Fc1ccc(-c2cc3c(-c4ccc5[nH]ncc5c4F)c(C4CC4)nn3cn2)cc1C(F)(F)C(F)(F)F` [Example 59, 2-Cyclopropyl-3-(4-fluoro-1H-indazol-5-yl)-5-(4-fluoro-3-pentafluoroethyl-phenyl)-pyrazolo[1,5-c]pyrimidine], the figures for the IC50 (with S. mansoni adult worms; in data set [1] (setting [2])) were 66 nM and 36 nM, respectively.

Turning to `Fc1c(-c2c(C3CC3)nc3cnc(-c4cccc(S(F)(F)(F)(F)F)c4)cn23)ccc2[nH]ncc12` [Example 46, 2-cyclopropyl-3-(4-fluoro-1H-indazol-5-yl)-6-(3-(pentafluoro-λ6-sulfaneyl)phenyl)imidazo[1,2-a]pyrazine], in data set [1] (setting [2]), the IC50 is 36 nM. Besides, the “(e) Cytotox HepG2” value in the data set on HepG2 cell line stood at 20.7 µM.

Regarding `COc1ccc(-c2c(C(C)C)nc3cnc(-c4ccc(F)c(C(F)(F)F)c4)cn23)cc1O` [Example 27, 2-methoxy-5-[2-(propan-2-yl)-6-[4-fluoro-3-(trifluoromethyl)phenyl]imidazo[1,2-a]pyrazin-3-yl]phenol], the results for the IC50 (in the data set with S. mansoni adult worms; in data set [1] (setting [2])) were less than 49 nM and 149 nM, respectively.

With `CCCc1nc2cnc(-c3cccc(C(F)(F)F)c3)cn2c1-c1ccc(OC)c(O)c1` [Example 18, 2-methoxy-5-[2-(propan-1-yl)-6-[3-(trifluoromethyl)phenyl]imidazo[1,2-a]pyrazin-3-yl]phenol], the IC50 in data set [1] (setting [2]) is 290 nM.

For the compound `CC(C)c1cc(-c2cn3c(-c4c(F)cc(O)cc4F)c(C4CC4)nc3cn2)ccc1F` [Example 80, 4-[2-Cyclopropyl-6-(4-fluoro-3-isopropyl-phenyl)-imidazo[1,2-a]pyrazin-3-yl]-3,5-difluoro-phenol], the figures for the IC50 (in the data set on S. mansoni adult worms; in data set [1] (setting [2])) were 4 nM and 5 nM, respectively.

In the case of `Fc1ccc(-c2cn3c(-c4ccc5[nH]ncc5c4F)c(C4CC4)nc3cn2)cc1C(F)(F)C(F)(F)F` [Example 54, 5-{2-cyclopropyl-6-[4-fluoro-3-(1,1,2,2,2-pentafluoroethyl)phenyl]imidazo[1,2-a]pyrazin-3-yl}-4-fluoro-1H-indazole], the IC50 was determined as 23 nM in the data set on S. mansoni adult worms and 37 nM in data set [1] (setting [2]).

In the case of `COc1cc(-c2c(C)nc3cnc(-c4cccc(C(F)(F)F)c4)cn23)ccc1O` [Example 5, 2-methoxy-4-(2-methyl-6-(3-(trifluoromethyl)phenyl)imidazo[1,2-a]pyrazin-3-yl)], the IC50 was determined as 520 nM in the data set with S. mansoni adult worms and 1270 nM in data set [1] (setting [2]).

For the compound `COc1ccc(-c2c(C(C)C)nc3cnc(-c4cccc(C(F)(F)F)c4)cn23)cc1OP(=O)(O)O` [Example 28, 2-methoxy-5-[2-(propan-2-yl)-6-[3-(trifluoromethyl)phenyl]imidazo[1,2-a]pyrazin-3-yl]phenoxyphosphonic acid], in data set [1], the IC50 was 183 nM. Moreover, the “(e) Cytotox HepG2” value in the data set on HepG2 cell line was 19.2 µM.

As to `Fc1ccc(-c2cn3c(-c4ccc5[nH]ncc5c4F)c(C(F)(F)F)nc3cn2)cc1Br` [Example 85, 6-(3-Bromo-4-fluoro-phenyl)-3-(4-fluoro-1H-indazol-5-yl)-2-trifluoromethyl-imidazo[1,2-a]pyrazine], the IC50 with S. mansoni adult worms came to 48 nM; in data set [1] (setting [2]) it was 7 nM.

As for `Cc1nc2cnc(-c3cccc(S(F)(F)(F)(F)F)c3)cn2c1-c1c(F)cc(O)cc1F` [Example 31, 3,5-difluoro-4-[2-methyl-6-[3-(pentafluorosulfanyl)phenyl]imidazo[1,2-a]pyrazin-3-yl]phenol], the IC50 in data set [1] (setting [2]) was 100 nM.

For the compound `C#CCOc1cc(-c2cn3c(-c4ccc5[nH]ncc5c4F)c(C(F)(F)F)nc3cn2)ccc1F` [Example 78, 3-(4-Fluoro-1H-indazol-5-yl)-6-(4-fluoro-3-prop-2-ynyloxy-phenyl)-2-trifluoromethyl-imidazo[1,2-a]pyrazine], the IC50 with S. mansoni adult worms is 10 nM; in data set [1] (setting [2]) it was 21 nM.

Regarding `Cc1nc2cnc(-c3cccc(C(F)(F)F)c3)cn2c1-c1ccc(O)cc1` [Example 4, 4-[2-methyl-6-[3-(trifluoromethyl)phenyl]imidazo[1,2-a]pyrazin-3-yl]phenol], the IC50 came out at 490 nM in the data set with S. mansoni adult worms and 1420 nM in data set [1] (setting [2]).

With `Fc1c(-c2c(C(F)(F)F)nc3cnc(-c4cccc(C(F)(F)F)c4)cn23)ccc2[nH]ncc12` [Example 70, 3-(4-Fluoro-1H-indazol-5-yl)-2-trifluoromethyl-6-(3-trifluoromethyl-phenyl)-imidazo[1,2-a]pyrazine], the results for the IC50 (in the data set with S. mansoni adult worms; in data set [1] (setting [2])) were 25 nM and 41 nM, respectively.

In the case of `COc1ccc(-c2c(C3CC3)nc3cnc(-c4cccc(C(F)(F)F)c4)cn23)cc1O` [Example 13, 2-methoxy-5-[2-cyclopropyl-6-[3-(trifluoromethyl)phenyl]imidazo[1,2-a]pyrazin-3-yl]phenol], the IC50 is 72 nM in the data set on S. mansoni adult worms and 63 nM in data set [1] (setting [2]).

As for `CC(C)c1nc2cnc(-c3cccc(Br)c3)cn2c1-c1ccc2[nH]ncc2c1F` [Example 73, 6-(3-Bromo-phenyl)-3-(4-fluoro-1H-indazol-5-yl)-2-isopropyl-imidazo[1,2-a]pyrazine], the IC50 in the data set with S. mansoni adult worms was 36 nM; in data set [1] (setting [2]), 27 nM.

In the case of `Oc1ccc(-c2c(C(F)F)nc3cnc(-c4cccc(C(F)(F)F)c4)cn23)c(F)c1` [Example 11, 3-fluoro-4-[2-difluoromethyl-6-[3-(trifluoromethyl)phenyl]imidazo[1,2-a]pyrazin-3-yl]phenol], the IC50 in data set [1] (setting [2]) is 490 nM.

`Cc1nc2cnc(-c3ccc(F)c(S(F)(F)(F)(F)F)c3)cn2c1-c1ccc2[nH]ncc2c1F` [Example 64, 3-(4-Fluoro-1H-indazol-5-yl)-6-(4-fluoro-3-pentafluorosulfanyl-phenyl)-2-methyl-imidazo[1,2-a]pyrazine]: the IC50 was determined as 26 nM with S. mansoni adult worms and 77 nM in data set [1] (setting [2]).

As to `Cc1nn2cnc(-c3ccc(F)c(C(F)(F)F)c3)cc2c1-c1c(F)cc(O)cc1F` [Example 42, 3,5-difluoro-4-(5-(4-fluoro-3-(trifluoromethyl)phenyl)-2-methylpyrazolo[1,5-c]pyrimidin-3-yl)phenol], the IC50 in data set [1] (setting [2]) amounted to 110 nM.

As to `Oc1ccc(-c2c(C3CC3)nc3cnc(-c4cccc(C(F)(F)F)c4)cn23)c(F)c1` [Example 14, 3-fluoro-4-[2-cyclopropyl-6-[3-(trifluoromethyl)phenyl]imidazo[1,2-a]pyrazin-3-yl]phenol], the IC50 in data set [1] (setting [2]) came out at 230 nM.

On to `Fc1ccc(-c2cn3c(-c4ccc5[nH]ncc5c4F)c(C4CCC4)nc3cn2)cc1C(F)(F)F` [Example 76, 2-Cyclobutyl-3-(4-fluoro-1H-indazol-5-yl)-6-(4-fluoro-3-trifluoromethyl-phenyl)-imidazo[1,2-a]pyrazine], for which the IC50 with S. mansoni adult worms worked out at 37 nM; in data set [1] (setting [2]), 36 nM.

For `COc1ccc(-c2c(C)nn3cnc(-c4cccc(C(F)(F)F)c4)cc23)cc1O` [Example 23, 2-methoxy-5-(2-methyl-5-(3-(trifluoromethyl)phenyl)pyrazolo[1,5-c]pyrimidin-3-yl)phenol], in data set [1] (setting [2]), the IC50 came out at 790 nM.

In the case of `COc1ccc(-c2c(CC3CC3)nc3cnc(-c4cccc(C(F)(F)F)c4)cn23)cc1O` [Example 26, 2-methoxy-5-[2-(cyclopropylmethyl)-6-[3-(trifluoromethyl)phenyl]imidazo[1,2-a]pyrazin-3-yl]phenol], in data set [1] (setting [2]), the IC50 came to 220 nM.

For the compound `Oc1ccc(-c2c(C(F)(F)F)nc3cnc(-c4cccc(C(F)(F)F)c4)cn23)c(F)c1` [Example 12, 3-fluoro-4-[2-trifluoromethyl-6-[3-(trifluoromethyl)phenyl]imidazo[1,2-a]pyrazin-3-yl]phenol], the IC50 in the data set with S. mansoni adult worms is less than 49 nM; in data set [1] (setting [2]), 250 nM.

As to `COc1cc(O)ccc1-c1c(C(C)C)nc2cnc(-c3cccc(C(F)(F)F)c3)cn12` [Example 20, 4-(2-isopropyl-6-(3-(trifluoromethyl)phenyl)imidazo[1,2-a]pyrazin-3-yl)-3-methoxyphenol], the IC50 is 920 nM with S. mansoni adult worms and 1040 nM in data set [1] (setting [2]).

With `Oc1cc(F)c(-c2c(CC(F)(F)F)nc3cnc(-c4ccc(F)c(C(F)(F)F)c4)cn23)c(F)c1` [Example 38, 3,5-difluoro-4-(6-(4-fluoro-3-(trifluoromethyl)phenyl)-2-(2,2,2-trifluoroethyl)imidazo[1,2-a]pyrazin-3-yl)phenol], the IC50 in data set [1] (setting [2]) turned out to be 140 nM.

Regarding `Oc1cc(F)c(-c2c(C3CC3)nn3cnc(-c4ccc(F)c(C(F)(F)F)c4)cc23)c(F)c1` [Example 60, 4-[2-Cyclopropyl-5-(4-fluoro-3-trifluoromethyl-phenyl)-pyrazolo[1,5-c]pyrimidin-3-yl]-3,5-difluoro-phenol], the IC50 in the data set with S. mansoni adult worms was found to be 17 nM; in data set [1] (setting [2]), 21 nM.

`Fc1ccc(-c2cn3c(-c4ccc5[nH]ncc5c4F)c(C4CC4)nc3cn2)cc1C(F)(F)F` [Example 43, 2-cyclopropyl-3-(4-fluoro-1H-indazol-5-yl)-6-(4-fluoro-3-(trifluoromethyl)phenyl)imidazo[1,2-a]pyrazine]: the IC50 in data set [1] (setting [2]) was 110 nM.

In the case of `CC(C)c1nc2cnc(-c3ccc(F)c(S(F)(F)(F)(F)F)c3)cn2c1-c1ccc2[nH]ncc2c1F` [Example 68, 3-(4-Fluoro-1H-indazol-5-yl)-6-(4-fluoro-3-pentafluorosulfanyl-phenyl)-2-isopropyl-imidazo[1,2-a]pyrazine], the values for the IC50 (in the data set with S. mansoni adult worms; in data set [1] (setting [2])) were 11 nM and 10 nM, respectively.

With `COc1ccc(-c2c(C(C)C)nn3cnc(-c4cccc(C(F)(F)F)c4)cc23)cc1O` [Example 25, 5-(2-isopropyl-5-(3-(trifluoromethyl)phenyl)pyrazolo[1,5-c]pyrimidin-3-yl)-2-methoxyphenol], the IC50 in data set [1] (setting [2]) is 110 nM.

Take `CC(C)c1nn2cnc(-c3ccc(F)c(C(F)(F)F)c3)cc2c1-c1ccc2[nH]ncc2c1F` [Example 61, 3-(4-Fluoro-1H-indazol-5-yl)-5-(4-fluoro-3-trifluoromethyl-phenyl)-2-isopropylpyrazolo[1,5-c]pyrimidine]: the IC50 in the data set on S. mansoni adult worms was 37 nM; in data set [1] (setting [2]), 60 nM.
